Experimental findings from patent EP0852225B1, “FIBRINOGEN RECEPTOR ANTAGONISTS AND MEDICINAL PREPARATIONS CONTAINING THE SAME AS THE ACTIVE INGREDIENT” (NIPPON STEEL CORPORATION, priority 1996, dated 1997) are described below.

The structures appear in SMILES notation.

In series [1] the test system is Human Platelet Aggregation. Put plainly: Measurement of in vitro human platelet aggregation using PRP (collagen-induced, aggregometer light transmittance). The class given is cell-based. To be noted: platelet aggregation inhibition in human PRP; collagen final concentration 5 µg/ml; 37°C. On the procedure:
Healthy male volunteers who had not taken any medicines for at least two weeks were selected as subjects. Blood was collected from the forearm vein of each subject on an empty stomach using a #19 needle and a plastic syringe preliminarily charged with 1/10 volume of a 3.8% sodium citrate solution. Immediately after the blood collection, the syringe was shaken gently to mix the blood with the sodium citrate solution. The mixed blood was centrifuged (1100 rpm, 250 g) at room temperature for 15 minutes and the rotation was stopped without applying the brake. Then, the supernatant was collected with a graduated pipette to obtain platelet-rich plasma (PRP). The PRP was stored at room temperature. The blood remaining after the centrifugation was further centrifuged (3500 rpm, 1500 g) at room temperature for 15 minutes and the rotation was stopped without applying the brake. The supernatant was collected to obtain platelet-poor plasma (PPP). After the preparation of the PRP, the number of platelets was counted and only samples containing 2 x 10^8 or more of platelets per milliliter were subjected to the following experiments.
Platelet aggregation was measured using an 8-channel aggregometer (Hematracer, Nikoh Bioscience, Tokyo, Japan) on the basis of the change in light transmittance through the PRP as follows.
First, the PPP and PRP (each 200 µl) were placed in glass cuvettes and incubated at 37°C. Thereafter, the transmittance was measured. The transmittance of the PPP was defined as 100% and that of the PRP as 0%.
Then, 10 µl of physiological saline or a sample-containing physiological saline was added to the PRP and incubated at 37°C for one minute. A collagen solution (10 µl) at a concentration of 100 µg/ml was added to the PRP-containing solution (final concentration: 5 µg/ml) to induce aggregation and thereafter the transmittance was measured over 7 minutes. After the aggregation with collagen and ADP was confirmed, only those samples in which the maximum percent aggregation with collagen was at least 70% were subjected to the experiment.
The sample was dissolved in physiological saline to give a concentration of 2.2 x 10^-2 M and a 2-fold dilution series was prepared for use in the experiments. The samples insoluble in the physiological saline were dissolved in physiological saline containing 10% DMSO (dimethyl sulfoxide).
The results were calculated as follows: Percent Aggregation inhibition =(Maximum percent aggregation upon the addition of sample)/(Maximum percent aggregation upon the addtion of physiological saline) [formula]
A graph was constructed by plotting the percent of aggregation inhibition against the sample concentration and the concentration at which the aggregation was inhibited by 50% (IC50) was calculated from the graph.

Series [2] is described as follows: Oral administration test: time course of the concentration in plasma after oral administration. It counts as in vivo. The following applies: male SD rats, 10 mg per kg, 30, 60 and 120 minutes after administration, HPLC, mean of three rats. On the procedure: Male SD rats which had been starved from the previous day were used in this experiment. Two test substances, the compounds of Example 4 and Comparative Example 1, were dissolved in distilled water and administered into the stomach of rats with an oral probe. Each compound was administered to each rat in an amount of 10 mg per kg of body weight. Blood samples were collected 30, 60 and 120 minutes after the administration. The concentration of each compound which was in an active state (i.e., free carboxylic acid) in plasma was determined by HPLC.
In this Figure, the horizontal axis represents the time after the oral administration and the vertical axis represents the concentration of the active form of each compound in plasma. Each point represents the mean value for three rats and the standard error. […] When the peak values at 30 minutes after the oral administration are compared, the difference was about 10 times as great.

Turning to `CCC(NC(=O)c1ccc(C(=N)N2CCOCC2)cc1)C(C)(C)C(=O)N1CCC(CC(=O)O)CC1` (stereo not drawn) [Example 2, N-(N-(9-(4-morpholinoimidoyl)benzoyl)-β-ethyl-α,α-dimethyl-β-alanyl)-4-piperidineacetic acid], half-maximal inhibition in series [1] (IC50) was put at 0.22 µM.
Regarding `CCC(NC(=O)c1ccc(C(=N)N2CCOCC2)cc1F)C(C)(C)C(=O)N1CCC(CC(=O)O)CC1` (stereo not drawn) [Example 4, N-{N-(4-(4-morpholinoimidoyl)-2-fluorobenzoyl)-β-ethyl-α,α-dimethyl-β-alanyl)-4-piperidineacetic acid], the “concentration of the active form (free carboxylic acid) in plasma, compared with Comparative Example 1” value in series [2] was “significantly higher concentration in plasma than the compound of Comparative Example 1 at every point of determination”. In addition, the half-maximal inhibitory concentration (IC50) in series [1] was 0.15 µM.
Take `CCC(NC(=O)c1ccc(C(=N)N2CCCCC2)cc1F)C(C)(C)C(=O)N1CCC(CC(=O)O)CC1` (stereo not drawn) [Example 8, N-(N-(4-(1-piperidinoimidoyl)-2-fluorobenzoyl)-β-ethyl-α,α-dimethyl-β-alanyl)-4-piperidineacetic acid]: in series [1], the half-inhibitory concentration (IC50) was found to be 0.22 µM.
In series [1], `CCC(NC(=O)c1ccc(C(=N)N2CCCC2)cc1F)C(C)(C)C(=O)N1CCC(CC(=O)O)CC1` (stereo not drawn) [Example 10, N-(N-(4-(1-pyrrolidinoimidoyl)-2-fluorobenzoyl)-β-ethyl-α,α-dimethyl-β-alanyl)-4-piperidineacetic acid] gave a 50% inhibitory concentration (IC50) of 0.087 µM.
In series [1], `CCC(NC(=O)c1ccc(C(=N)N2CCC(=O)CC2)cc1F)C(C)(C)C(=O)N1CCC(CC(=O)O)CC1` (stereo not drawn) [Example 12, N-(N-(4-(1-4-piperidonoimidoyl)-2-fluorobenzoyl)-β-ethyl-α,α-dimethyl-β-alanyl)-4-piperidineacetic acid] showed an IC50 of 0.12 µM.
In series [1], `CCC(NC(=O)c1ccc(C(=N)N2CCC(O)CC2)cc1F)C(C)(C)C(=O)N1CCC(CC(=O)O)CC1` (stereo not drawn) [Example 14, N-(N-(4-(4-hydroxy-1-piperidinoimidoyl)-2-fluorobenzoyl)-β-ethyl-α,α-dimethyl-β-alanyl)-4-piperidineacetic acid] yielded a half-maximal inhibitory concentration (IC50) of 0.052 µM.
In turn, `CCC(NC(=O)c1ccc(C(=N)N2CCSC2)cc1F)C(C)(C)C(=O)N1CCC(CC(=O)O)CC1` (stereo not drawn) [Example 16, N-(N-(4-(3-thizolidinoimidoyl)-2-fluorobenzoyl)-β-ethyl-α,α-dimethyl-β-alanyl)-4-piperidineacetic acid] registered a half-inhibitory concentration (IC50) in series [1] of 0.043 µM.
As to `CCC(NC(=O)c1ccc(C(=N)N2CCCCCC2)cc1F)C(C)(C)C(=O)N1CCC(CC(=O)O)CC1` (stereo not drawn) [Example 18, N-(N-(4-(1-hexamethyleneiminoimidoyl)-2-fluorobenzoyl)-β-ethyl-α,α-dimethyl-β-alanyl)-4-piperidineacetic acid], in series [1], half-maximal inhibition (IC50) was put at 0.23 µM.
With `CCC(NC(=O)c1ccc(C(=N)N2CCSCC2)cc1F)C(C)(C)C(=O)N1CCC(CC(=O)O)CC1` (stereo not drawn) [Example 20, N-(N-(4-(N-thiomorpholinoimidoyl)-2-fluorobenzoyl)-β-ethyl-α,α-dimethyl-β-alanyl)-4-piperidineacetic acid], half-maximal inhibition in series [1] (IC50) was put at 0.12 µM.
Consider `CCC(NC(=O)c1ccc(C(=N)N2CCN(C)CC2)cc1F)C(C)(C)C(=O)N1CCC(CC(=O)O)CC1` (stereo not drawn) [Example 22, N-(N-(4-(4-methyl-1-piperazinoimidoyl)-2-fluorobenzoyl)-β-ethyl-α,α-dimethyl-β-alanyl)-4-piperidineacetic acid], for which the IC50 in series [1] amounted to 0.069 µM.
Still for that read-out and setting: next, `CCC(NC(=O)c1ccc(C(=N)N2CCN(c3ccccc3)CC2)cc1F)C(C)(C)C(=O)N1CCC(CC(=O)O)CC1` (stereo not drawn) [Example 24, N-(N-(4-(4-phenyl-1-piperazinoimidoyl)-2-fluorobenzoyl)-β-ethyl-α,α-dimethyl-β-alanyl)-4-piperidineacetic acid]: 0.057 µM; `CCC(NC(=O)c1ccc(C(=N)N2CCN(c3ccc(F)cc3)CC2)cc1F)C(C)(C)C(=O)N1CCC(CC(=O)O)CC1` (stereo not drawn) [Example 26, N-(N-(4-(4-(4-fluorophenyl)-1-piperazinoimidoyl)-2-fluorobenzoyl)-β-ethyl-α,α-dimethyl-β-alanyl)-4-piperidineacetic acid]: 0.087 µM; `CC(C)(C(=O)N1CCC(CC(=O)O)CC1)C(NC(=O)c1ccc(C(=N)N2CCOCC2)cc1)c1ccccc1` (centres unmarked) [Example 28]: 0.24 µM.
